Test results reported in patent US20180051284A1, “INHIBITORS OF MIR-17-92 CLUSTER FOR ANTI-TUMOR ACTIVITY IN MULTIPLE MYELOMA AND OTHER MALIGNANCIES” (priority 2014, published 2018).
l = locked nucleic acid (LNA); d = 2'-deoxy (DNA)

How the values were obtained:
U266 cells = assay: U266 orthotopic model of human MM (IVIS); assay type: in vivo, mice; conditions: I.P. 2 mg/kg at day 1-4-8-15-22; compared to controls
Excerpt: (§1) Male CB-17 severe combined immunodeficient (SCID) mice (6- to 8-weeks old; Harlan Laboratories, Inc., Indianapolis) were housed and monitored in our Animal Research Facility. All experimental procedures and protocols had been approved by the Institutional Ethical Committee (Magna Graecia University) and conducted according to protocols approved by the National Directorate of Veterinary Services (Italy). In accordance with institutional guidelines, mice were sacrificed when tumors reached 2 cm in diameter or in the event of paralysis or major compromise, to prevent unnecessary suffering. […] Mice were also inoculated with 5×10^6 luciferase gene-marked U266, AMO-1, AMO-1/abzb, treatments were performed intraperitoneally (i.p.), and tumor volume were measured by IVIS Lumina II.
The in vivo activity of gapmer_06 was also evaluate in a orthotopic model of human MM using U266 cells, to explore the efficacy in relation to the microenvironment. […] Tumor growth was monitored using IVIS LUMINA II Imaging System. […] Engraftment was determined by sacrificing mice after 10 weeks and analyzing bone marrow for luciferase gene-marked U266 cells. […] Mice were treated I.P. with gapmer_06 at concentration of 2 mg/kg at day 1-4-8-15-22, and serum shulL-6R levels were serially determined as a marker of tumor growth.

[1] = tested on: PTEN, AKT, ERK, E2F-1, p14/ARF-p53 and intrinsic apoptotic pathway proteins in NCI-H929 cells; assay: Western blot analysis of molecular perturbations after gymnotic exposure; assay type: cell-based, Human
Protocol: SDS-PAGE and Western Blotting (WB) were performed according to standard protocols. Briefly, cells were lysed by lysis buffer containing 15mM Tris/HCl pH 7.5, 120mM NaCl, 25mM KCI, 1mM EDTA, 0.5% Triton 100, Halt Protease Inhibitor Single-Use cocktail (100X, Thermo Scientific). Whole cells lysates (50 μg per lane) were separated using 4-12% Novex Bis-Tris SDS-acrylamide gels (Invitrogen), electro-transferred on Nitrocellulose membranes (Bio-Rad), and immunoblotted with the antibodies. Membranes were washed 3 times in PBS-Tween and then incubated with a secondary antibody conjugated with horseradish peroxidase in 0.5% milk for 2 hours at room temperature. Chemiluminescence was detected using Western Blotting Luminol Reagent (sc-2048, Santa Cruz, Dallas, Tex., USA). Signal intensity was quantified with the Quantity One Analyzing System (Bio-Rad).
MiRNAs are a class of non coding RNAs that regulate gene expression at post-transcriptional levels. Each miRNA may regulate the expression of several (hundreds) genes. Since LNA/DNA gapmers inhibit the biogenisis of the six members of the miR-17-92 cluster, a wide perturbation in the expression of target genes is predictable. Therefore, we gymnotically exposed NCI-H929 cells for 6 days to gapmer_06 or scrambled controls and, by western blotting, we analyzed molecular perturbations at protein levels.

AMO1/abzb xenografts = assay: In vivo tumor growth of Bortezomib-refractory AMO1/abzb xenografts (IVIS); set-up: species or system mice; conditions: I.P. 2 mg/kg at day 1-4-8-15-22; Bortezomib-refractory model
Excerpt: as §1, with “suffering. Animal experimental procedures have been performed as in previous reports (Di Martino et al, CCR 2012; Di Martino el al. Oncotarget 2013, Di Martino et al PlosOne 2014).” for “suffering.”
In vivo anti-MM activity of LNA gapmer_06 was next evaluated in NOD/SCID mice bearing subcutaneous AMO1 xenografts. […] Tumors volume were measured using IVIS LUMINA II Imaging We next evaluate the in vivo activity in Bortezomib-refractory model of human MM. […] Tumors volume were measured using IVIS LUMINA II Imaging System.

[2] = tested on: RPMI-8226, KMS-12-BM and NCI-H929 MM cells; assay: CCK-8 cell growth assay after transfection; assay type: cell-based, Human; conditions: transfection with 25 nM
Protocol: 3×10^5 cells were transfected using Neon Transfection System (Invitrogen, Calif.,U.S.), (2 pulses at 1150, 30ms). The transfection efficiency evaluated by flow-cytometric analysis relative to a FAM dye—labeled anti-miR—negative control reached 85% to 90%.
Cells were seeded in 100 μL (suspension cell lines) or 50 μL (adherent cell lines) of culture medium at a density ranging from 0,5 to 2,5×10^3 cells per well. Survival was evaluated by both Cell Counting Kit-8 colorimetric assay (CCK-8, Dojindo Molecular Technologies, Japan) and CellTiter-Glo Luminescent Cell Viability Assay (Promega Madison, Wis., USA). Assays were performed according to the manufacturer's instructions. The optical density (OD) was evaluated at wave length of 450 nm. Both OD and luminescence were recorded with the GloMax-multi detection system (Promega, Madison, Wis., USA).

[3] = NCI-H929, 6 days gymnotic exposure, 2,5 μM

Substance: gapmer_06: LNA/DNA gapmer, SEQ ID 4 (14 mer): +T*+A*+C*T*T*G*C*T*T*G*G*+C*+T*+T; + LNA, * phosphorothioate (antisense TACTTGCTTGGCTT; sugars from the 5' end l3 d8 l3, all phosphorothioate, methylation of C not given here)
- tumor growth (IVIS) (U266 cells): significant tumor-growth inhibition
- E2F-1 protein level (Western Blot) [1, 3]: strongly up-regulated
- anti-apoptotic proteins Bcl-2, Mcl-1 (Western Blot) [1, 3]: down-regulation of anti-apoptotic proteins
- caspase-3 cleavage (Western Blot) [1, 3]: caspase-3 cleavege
- p-AKT and p-ERK (phosphorylated/active forms, Western Blot) [1, 3]: reduction of the phopshorylated / active forms
- pro-apoptotic proteins Puma, Bak, Bax, Bid and Bim (Western Blot) [1, 3]: up-regulation of pro-apototic proteins
- PTEN protein level (Western Blot) ([1]; NCI-H929, 6 days gymnotic exposure, 2,5 μM, vs scrambled controls): strong up-regulation
- p14/ARF-p53 fail-safe axis (Western Blot) ([1]; p53-wild-type NCI-H929, 6 days gymnotic exposure, 2,5 μM): triggers the p14/ARF-p53 fail-safe axis
- tumor growth (IVIS tumor volume) (AMO1/abzb xenografts): significant tumor-growth inhibition
- biological effect on cell growth (CCK-8) compared with single miRNA inhibitors for miR-17/18a/19a/19b/20a/92a [2]: strongest biological effects
- cell growth inhibition (CCK-8 assay) ([2]; up to 96 hours, compared among the eight gapmers): strongest cell growth inhibition
